Laboratory results: patent publication US9163021B2, “Pyrrolo[3,2-c]pyridine tropomyosin-related kinase inhibitors” (Pfizer Limited, priority 2012, dated 2015)

Target: TRKA (Homo sapiens (Human), UniProt P04629)
Test: Isolated TRK enzyme assay (HTRF KinEASE-TK), PV3144 TrkA enzyme assay
Assay type: biochemical
Settings: arithmetic mean where more than one reading
Procedure, shortened: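 Kinase (recombinant His-TrkA cytoplasmic domain, ATP-preactivated 20 min) met compound 20 min, then biotinylated TK substrate (1 µM final) with Mg2+/DTT buffer; HTRF detection.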

TRKA, sequence (P04629 441-796): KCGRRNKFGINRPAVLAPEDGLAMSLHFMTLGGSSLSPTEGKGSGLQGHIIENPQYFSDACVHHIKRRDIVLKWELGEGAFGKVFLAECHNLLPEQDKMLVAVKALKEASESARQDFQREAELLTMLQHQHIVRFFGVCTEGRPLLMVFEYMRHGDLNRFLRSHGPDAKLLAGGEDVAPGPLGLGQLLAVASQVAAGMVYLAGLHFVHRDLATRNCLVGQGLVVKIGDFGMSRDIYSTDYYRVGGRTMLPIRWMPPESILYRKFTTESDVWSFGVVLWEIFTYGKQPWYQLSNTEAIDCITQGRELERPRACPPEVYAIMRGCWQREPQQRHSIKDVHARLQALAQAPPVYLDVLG

| Structure (SMILES) | IC50 |
| --- | --- |
| CC(C)n1cc(C(=O)c2cncc(NC(=O)Cc3ccc(Cl)cc3)c2)c2cnccc21 [Example 116, 2-(4-chlorophenyl)-N-(5-{[1-(propan-2-yl)-1H-pyrrolo[3,2-c]pyridin-3-yl]carbonyl}pyridin-3-yl)acetamide] | 11.3 nM |
| CC(C)n1cc(C(=O)c2cncc(NC(=O)Cc3cccc(CC(C)(C)O)c3)c2)c2cnccc21 [Example 117, 2-(3-(2-hydroxy-2-methylpropyl)phenyl]-N-(5-{[1-(propan-2-yl)-1H-pyrrolo[3,2-c]pyridin-3-yl]carbonyl}pyridin-3-yl)acetamide] | 39.2 nM |
| Cc1nccn1CC(=O)Nc1cncc(C(=O)c2cn(C(C)C)c3ccncc23)c1 [Example 118, 2-(2-methyl-1H-imidazol-1-yl)-N-(5-{[1-(propan-2-yl)-1H-pyrrolo[3,2-c]pyridin-3-yl]carbonyl}pyridin-3-yl)acetamide] | 9150 nM |
| CC(C)n1cc(C(=O)c2cncc(NC(=O)Cc3ncccn3)c2)c2cnccc21 [Example 119, N-(5-{[1-(propan-2-yl)-1H-pyrrolo[3,2-c]pyridin-3-yl]carbonyl}pyridin-3-yl)-2-(pyrimidin-2-yl)acetamide] | 4900 nM |
| Cc1cc(C(C)C)nn1CC(=O)Nc1cncc(C(=O)c2cn(C(C)C)c3ccncc23)c1 [Example 120, 2-(5-methyl-3-(propan-2-yl)-1H-pyrazol-1-yl]-N-(5-{[1-(propan-2-yl)-1H-pyrrolo[3,2-c]pyridin-3-yl]carbonyl}pyridin-3-yl)acetamide] | 39.5 nM |
| Cc1cc(C(F)(F)F)nn1CC(=O)Nc1cncc(C(=O)c2cn(C(C)C)c3ccncc23)c1 [Example 121, 2-(5-methyl-3-(trifluoromethyl)-1H-pyrazol-1-yl]-N(5-{[1-(propan-2-yl)-1H-pyrrolo[3,2-c]pyridin-3-yl]carbonyl}pyridin-3-yl)acetamide] | 14.3 nM |
| CC(C)n1cc(C(=O)c2cncc(NC(=O)Cn3cccn3)c2)c2cnccc21 [Example 122, N-(5-{[1-(propan-2-yl)-1H-pyrrolo[3,2-c]pyridin-3-yl]carbonyl}pyridin-3-yl)-2(1H-pyrazol-1-yl)acetamide] | 1220 nM |
| CC(C)c1cn(CC(=O)Nc2cncc(C(=O)c3cn(C(C)C)c4ccncc34)c2)nn1 [Example 123] | 59.5 nM |
| CC(C)c1ccnn1CC(=O)Nc1cncc(C(=O)c2cn(C(C)C)c3ccncc23)c1 [Example 124, 2-(5-(propan-2-yl)-1H-pyrazol-1-yl]-N-(5-{[1-(propan-2-yl)-1H-pyrrolo[3,2-c]pyridin-3-yl]carbonyl}pyridin-3-yl)acetamide] | 198 nM |
| CC(C)n1cc(C(=O)c2cncc(NC(=O)Cc3cccc(Cl)c3)c2)c2cnccc21 [Example 125, 2-(3-chlorophenyl)-N-(5-{[1-(propan-2-yl)-1H-pyrrolo[3,2-c]pyridin-3-yl]carbonyl}pyridin-3-yl)acetamide] | 707 nM |
| CC(C)n1cc(C(=O)c2cncc(NC(=O)Cc3cccc(Cl)c3)c2)c2cnccc21 [Example 126, 2-(3-chlorophenyl)-N-(5-{[1-(propan-2-yl)-1H-pyrrolo[3,2-c]pyridin-3-yl]carbonyl}pyridin-3-yl)acetamide] | 28.6 nM |
| CC(C)n1cc(C(=O)c2cncc(NC(=O)Cn3cc(Cl)cn3)c2)c2cnccc21 [Example 127, 2-(4-chloro-1H-pyrazol-1-yl)-N-(5-{[1-(propan-2-yl)-1H-pyrrolo[3,2-c]pyridin-3-yl]carbonyl}pyridin-3-yl)acetamide] | 41.8 nM |
| COc1ccc(CC(=O)Nc2cncc(C(=O)c3cn(C(C)C)c4ccncc34)c2)cc1 [Example 128, 2-(4-methoxyphenyl)-N-(5-{[1-(propan-2-yl)-1H-pyrrolo[3,2-c]pyridin-3-yl]carbonyl}pyridin-3-yl)acetamide] | 147 nM |
| CC(C)n1cc(C(=O)c2cncc(NC(=O)Cc3ccccc3)c2)c2cnccc21 [Example 130, 2-phenyl-N-(5-{[1-(propan-2-yl)-1H-pyrrolo[3,2-c]pyridin-3-yl]carbonyl}pyridin-3-yl)acetamide] | 161 nM |
| Cc1cc(C)n(CC(=O)Nc2cncc(C(=O)c3cn(C(C)C)c4ccncc34)c2)n1 [Example 131, 2-(3,5-dimethyl-1H-pyrazol-1-yl)-N-(5-{[1-(propan-2-yl)-1H-pyrrolo[3,2-c]pyridin-3-yl]carbonyl}pyridin-3-yl)acetamide] | 92.8 nM |
| Cc1cn(CC(=O)Nc2cncc(C(=O)c3cn(C(C)C)c4ccncc34)c2)nn1 [Example 132, 2-(4-methyl-1H-1,2,3-triazol-1-yl)-N-(5-{[1-(propan-2-yl)-1H-pyrrolo[3,2-c]pyridin-3-yl]carbonyl}pyridin-3-yl)acetamide] | 505 nM |
| CC(C)n1cc(C(=O)c2cncc(NC(=O)Cc3cnccn3)c2)c2cnccc21 [Example 133, N-(5-{[1-(propan-2-yl)-1H-pyrrolo[3,2-c]pyridin-3-yl]carbonyl}pyridin-3-yl)-2-(pyrazin-2-yl)acetamide] | 4340 nM |

| Structure (SMILES) | IC50 |
| --- | --- |
| Cc1ccn(CC(=O)Nc2cncc(C(=O)c3cn(C(C)C)c4ccncc34)c2)n1 [Example 134, 2-(3-methyl-1H-pyrazol-1-yl)-N-(5-{[1-(propan-2-yl)-1H-pyrrolo[3,2-c]pyridin-3-yl]carbonyl}pyridin-3-yl)acetamide] | 284 nM |
| Cc1ccnn1CC(=O)Nc1cncc(C(=O)c2cn(C(C)C)c3ccncc23)c1 [Example 135, 2-(5-methyl-1H-pyrazol-1-yl)-N-(5-{[1-(propan-2-yl)-1H-pyrrolo[3,2-c]pyridin-3-yl]carbonyl}pyridin-3-yl)acetamide] | 2600 nM |
| Cc1cc(CC(=O)Nc2cncc(C(=O)c3cn(C(C)C)c4ccncc34)c2)[nH]n1 [Example 136, 2(3-methyl-1H-pyrazol-5-yl)-N-(5-{[1-(propan-2-yl)-1H-pyrrolo[3,2-c]pyridin-3-yl]carbonyl}pyridin-3-yl)acetamide] | 268 nM |
| Cc1nc(C)n(CC(=O)Nc2cncc(C(=O)c3cn(C(C)C)c4ccncc34)c2)n1 [Example 137, 2-(3,5-dimethyl-1H-1,2,4-triazol-1-yl)-N-(5-{[1-(propan-2-yl)-1H-pyrrolo[3,2-c]pyridin-3-yl]carbonyl}pyridin-3-yl)acetamide] | 9800 nM |
| CC(C)n1cc(C(=O)c2ccnc(NC(=O)Cc3ccc(C#N)cn3)c2)c2cnccc21 [Example 138, 2(5-cyanopyridin-2-yl)-N-(4-{[1-(propan-2-yl)-1H-pyrrolo[3,2-c]pyridin-3-yl]carbonyl}pyridin-2-yl)acetamide] | 45.3 nM |
| CC(C)n1cc(C(=O)c2cncc(NC(=O)Cc3ccc(C#N)cn3)c2)c2cnccc21 [Example 139, 2-(5-cyanopyridin-2-yl)-N-(5-{[1-(propan-2-yl)-1H-pyrrolo[3,2-c]pyridin-3-yl]carbonyl}pyridin-3-yl)acetamide] | 100 nM |
| CC(C)n1cc(C(=O)c2cc(NC(=O)Cc3ccc(C#N)cn3)ccn2)c2cnccc21 [Example 140, 2-(5-cyanopyridin-2-yl)-N-(2-{[1-(propan-2-yl)-1H-pyrrolo[3,2-c]pyridin-3-yl]carbonyl}pyridin-4-yl)acetamide] | 207 nM |
| O=C(Cc1ccc(C(F)(F)F)cc1)Nc1cc(C(=O)c2cn(CCO)c3ccncc23)ccn1 [Example 141, N-(4-{[1-(2-hydroxyethyl)-1H-pyrrolo[3,2-c]pyridin-3-yl]carbonyl}pyridin-2-yl)-2-[4-(trifluoromethyl)phenyl]acetamide] | 20.2 nM |
| O=C(Nc1cc(C(=O)c2cn(CCO)c3ccncc23)ccn1)c1cccc(OC(F)(F)F)c1 [Example 142, N-(4-{[1-(2-hydroxyethyl)-1H-pyrrolo[3,2-c]pyridin-3-yl]carbonyl}pyridin-2-yl)-3-(trifluoromethoxy)benzamide] | 29.9 nM |
| O=C(Cc1ccccc1OC(F)(F)F)Nc1cc(C(=O)c2cn(CCO)c3ccncc23)ccn1 [Example 143, N-(4-{[1-(2-hydroxyethyl)-1H-pyrrolo[3,2-c]pyridin-3-yl]carbonyl}pyridin-2-yl)-2-[2-(trifluoromethoxy)phenyl]acetamide] | 986 nM |
| O=C(Cc1ccc(Cl)c(Cl)c1)Nc1cc(C(=O)c2cn(CCO)c3ccncc23)ccn1 [Example 144, 2-(3,4-dichlorophenyl)-N-(4-{[1-(2-hydroxyethyl)-1H-pyrrolo[3,2-c]pyridin-3-yl]carbonyl}pyridin-2-yl)] | 22.2 nM |
| O=C(Cc1ccc(F)cc1F)Nc1cc(C(=O)c2cn(CCO)c3ccncc23)ccn1 [Example 145, 2-(2,4-difluorophenyl)-N-(4-{[1-(2-hydroxyethyl)-1H-pyrrolo[3,2-c]pyridin-3-yl]carbonyl}pyridin-2-yl)acetamide] | 305 nM |
| O=C(Cc1ccc(Cl)cc1)Nc1cc(C(=O)c2cn(CCO)c3ccncc23)ccn1 [Example 146, 2-(4-chlorophenyl)-N-(4-{[1-(2-hydroxyethyl)-1H-pyrrolo[3,2-c]pyridin-3-yl]carbonyl}pyridin-2-yl)acetamide] | 59.4 nM |
| CC(C)c1ccnn1CC(=O)Nc1cc(C(=O)c2cn(CCO)c3ccncc23)ccn1 [Example 147, N-(4-{[1-(2-hydroxyethyl)-1H-pyrrolo[3,2-c]pyridin-3-yl]carbonyl}pyridin-2-yl)-2-[5-(propan-2-yl)-1H-pyrazol-1-yl]acetamide] | 4310 nM |
| O=C(Cc1ccc(F)cc1)Nc1cc(C(=O)c2cn(CCO)c3ccncc23)ccn1 [Example 148, 2-(4-fluorophenyl)-N-(4-{[1-(2-hydroxyethyl)-1H-pyrrolo[3,2-c]pyridin-3-yl]carbonyl}pyridin-2-yl)acetamide] | 424 nM |
| O=C(Cc1cccc(Cl)c1)Nc1cc(C(=O)c2cn(CCO)c3ccncc23)ccn1 [Example 149, 2-(3-chlorophenyl)-N-(4-{[1-(2-hydroxyethyl)-1H-pyrrolo[3,2-c]pyridin-3-yl]carbonyl}pyridin-2-yl)acetamide] | 200 nM |
| Cc1ccn(CC(=O)Nc2cc(C(=O)c3cn(CCO)c4ccncc34)ccn2)n1 [Example 150, N-(4-{[1-(2-hydroxyethyl)-1H-pyrrolo[3,2-c]pyridin-3-yl]carbonyl}pyridin-2-yl)-2-(3-methyl-1H-pyrazol-1-yl)acetamide] | 3080 nM |
